Experimental findings from PubChem BioAssay AID1336 (NMMLSC, 2008) are described below.

pEC50: −log10 of the molar value.

The target of the test is Ras-related protein Rab-7a (dog), GTP binding. Nature of the test: blockers of fluorescent GTP binding to Rab7 – biochemical, wildtype, multiplex bead flow cytometry, dose response (AID 1336). The note with it: bead-based flow cytometry.
In general, pEC50 refers to the EC50 on a negative log10 scale, so that one unit is a factor of ten. On to `O=C(O)/C=C/c1cn(Cc2ccccc2)nc1-c1cccs1`, for which the pEC50 was 5.63. Then `Cc1cc(C(=O)Oc2ccccc2C(=O)O)c(C)o1`, with 6.09; and `Cc1cc(C(=O)O)sc1CNCc1ccccc1Cl`, with 6.37.

Take `COC(=O)c1cccnc1SCCc1ccccc1`: the pEC50 was 4.85. The same measure for `O=C(O)c1ccccc1NCCc1ccc(Cl)cc1`: 6.47; for `N#Cc1c(-c2ccccc2)nc(SCC(=O)Nc2ccccc2)[nH]c1=O`: 5.19. `CCOc1ccc(/C=C2\SC(N3CCc4ccccc4C3)=NC2=O)cc1`: the pEC50 is 4.94.

`Cc1sc(-n2c(C)cc(C=C3C(=O)NC(=O)NC3=O)c2C)c(C#N)c1C`: the pEC50 was 4.54. `Cc1nn(Cc2ccccc2)c(Cl)c1C(=O)O`: the pEC50 is 5.45. `O=C1CN=C(c2ccccc2)c2cc(Br)ccc2N1Cc1cc(=O)n2ccccc2n1`: the pEC50 was 5.57.

As for `O=C(O)c1ccccc1Sc1ncnc2sc3c(c12)CCC3`, the pEC50 is 5.58.

With `CC(C)C(NCc1c(Cl)cccc1Cl)C(=O)O` (configuration not stated), the pEC50 was 5.65.
